We go through 17 compounds from PubChem BioAssay (NCI).

Test systems include UO-31 renal; SN12C renal; COLO 205 colon; OVCAR-8 ovarian; NCI-H226 lung; EKVX NSCLC; HL-60(TB) leukemia; A498 renal; MDA-MB-231 breast; DU-145 prostate.
What all share (assay): growth of human tumour cells (NCI), 48 h

SMILES strings stand for the structures.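 Briefly, cells in 96-well plates were exposed to five compound concentrations for 48 h, and endpoints were estimated by linear interpolation. Here, GI50 denotes the concentration required for 50% inhibition of growth. TGI is the concentration that stops growth completely.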

Regarding `O=c1[nH]c2nc3ccccc3c(=O)n2nc1Cc1ccccc1`, the TGI with UO-31 renal, in the test with SN12C renal, with COLO 205 colon, in the test on OVCAR-8 ovarian, with NCI-H226 lung and with EKVX NSCLC was greater than 100 µM throughout.
Regarding `CC(=O)/C=C1\CC(=O)N(C)c2ccccc2N1`, the TGI in the test with UO-31 renal, with SN12C renal, in the test with COLO 205 colon, with OVCAR-8 ovarian, in the test on NCI-H226 lung and with EKVX NSCLC was greater than 100 µM in each case.
As to `CCCCC[C@@H]1CCCC2NC(CCCCCO[Si](c3ccccc3)(c3ccccc3)C(C)(C)C)CCC21` (stereo partly specified), the TGI turned out to be 26.6 µM in the test with UO-31 renal; 23 µM in the test on HL-60(TB) leukemia; 28.4 µM in the test on SN12C renal; 32.7 µM with OVCAR-8 ovarian; 36.6 µM in the test on NCI-H226 lung; 34.3 µM in the test with EKVX NSCLC. This compound displayed a TGI in the test on A498 renal of 31.9 µM.
For the compound `COc1ccc2c(c1OC)C(=O)C2`, the TGI in the test with UO-31 renal, in the test with HL-60(TB) leukemia, in the test with SN12C renal, in the test with COLO 205 colon, in the test on OVCAR-8 ovarian and in the test on NCI-H226 lung was greater than 100 µM each time. The TGI in the test on EKVX NSCLC is greater than 100 µM.
Regarding `CN(C)CCNC(=O)c1ccc2c(c1)oc1cc3ccccc3c(=O)n12`, the GI50 was 15.1 µM with UO-31 renal; 23.8 µM in the test on HL-60(TB) leukemia; 15.4 µM in the test on SN12C renal; 15.6 µM in the test on COLO 205 colon; 13 µM with MDA-MB-231 breast; 19.4 µM in the test on OVCAR-8 ovarian. In the test on EKVX NSCLC, the GI50 was 18.1 µM. Further, the TGI in the test on UO-31 renal came to 30.8 µM; with HL-60(TB) leukemia it was 87.9 µM; with SN12C renal it was 30.6 µM; in the test on COLO 205 colon, 35.6 µM; in the test on MDA-MB-231 breast, 27.9 µM; in the test with OVCAR-8 ovarian, 42.5 µM. In the test on EKVX NSCLC, this compound had a TGI of 36.6 µM.
For `O=C(c1ccccc1)c1nc2c(Cl)ccc(Cl)c2cc1C(Br)Br`, the TGI in the test with UO-31 renal stood at 2.56 µM; in the test on COLO 205 colon, 14.5 µM; in the test on OVCAR-8 ovarian it was 7.59 µM; in the test on NCI-H226 lung it was 3.61 µM.
In the case of `O=C(NCCCN1CCN(CCCNC(=O)c2cccc3ccccc23)CC1)c1cccc2ccccc12`, the TGI with UO-31 renal, in the test with HL-60(TB) leukemia, in the test on SN12C renal, in the test with COLO 205 colon, with OVCAR-8 ovarian and in the test on NCI-H226 lung was greater than 100 µM throughout. The TGI in the test on EKVX NSCLC and with A498 renal was greater than 100 µM in each case.
As to `CN(C)CCCNc1ccnc2c([N+](=O)[O-])cccc12`, the TGI was greater than 100 µM with UO-31 renal; 28.8 µM in the test with SN12C renal; 5.34 µM in the test with COLO 205 colon; 61.6 µM in the test with OVCAR-8 ovarian; greater than 100 µM in the test with NCI-H226 lung; 36 µM in the test on EKVX NSCLC.
As for `COc1ccc(C2=C(OC(C)=O)c3cccn3-c3ccc(Cl)cc3S2)cc1`, the TGI with HL-60(TB) leukemia was 3.02 µM; in the test on SN12C renal, greater than 10 µM; with COLO 205 colon, greater than 10 µM; with MDA-MB-231 breast it was greater than 10 µM; in the test with OVCAR-8 ovarian it was greater than 10 µM; with DU-145 prostate it was greater than 10 µM. In the test with EKVX NSCLC, this compound showed a TGI greater than 10 µM.
Turning to `CC(C)(C)OC(=O)N(CCCCN(CCCn1c2c(c3ccccc3c1=O)C(=O)c1ccccc1-2)C(=O)OC(C)(C)C)CCCn1c2c(c3ccccc3c1=O)C(=O)c1ccccc1-2`, the GI50 is 28.4 µM in the test with UO-31 renal; greater than 100 µM with HL-60(TB) leukemia; 36 µM in the test on SN12C renal; greater than 100 µM in the test on COLO 205 colon; 13.9 µM with MDA-MB-231 breast; greater than 100 µM in the test with OVCAR-8 ovarian. Besides, the figures for the GI50 with NCI-H226 lung and in the test with DU-145 prostate were 99.2 µM and 48.1 µM, respectively. Besides, the TGI was greater than 100 µM in the test on UO-31 renal; greater than 100 µM in the test on HL-60(TB) leukemia; greater than 100 µM in the test on SN12C renal; greater than 100 µM in the test with COLO 205 colon; 47.2 µM in the test on MDA-MB-231 breast; greater than 100 µM in the test on OVCAR-8 ovarian. The TGI in the test on NCI-H226 lung and with DU-145 prostate was greater than 100 µM each time.
For the compound `CC1=CC(=O)NP(=O)(Oc2ccc(Cl)cc2)N1` (stereo unspecified), the TGI in the test on UO-31 renal, in the test on HL-60(TB) leukemia, with SN12C renal, in the test on COLO 205 colon, with OVCAR-8 ovarian and in the test on NCI-H226 lung was greater than 100 µM each time. The TGI in the test on EKVX NSCLC and in the test with A498 renal was greater than 100 µM each time.
On to `Cc1cccc(NC(=O)c2c(N)[n+]([O-])c3ccccc3[n+]2[O-])c1`, for which the TGI amounted to 32.6 µM in the test with UO-31 renal; 56.7 µM in the test on HL-60(TB) leukemia; 17 µM in the test with SN12C renal; 27.2 µM in the test with COLO 205 colon; 32.3 µM in the test on OVCAR-8 ovarian; 27 µM with NCI-H226 lung. The TGI with EKVX NSCLC is 31.3 µM; in the test with A498 renal, 29.8 µM.
For the compound `O=C1OC(C(O)CO)C(C(O)CO)OC1=O` (stereo unspecified), the TGI in the test with UO-31 renal, with HL-60(TB) leukemia, in the test on SN12C renal, with COLO 205 colon, with MDA-MB-231 breast and in the test with OVCAR-8 ovarian was greater than 10 µM each time. Besides, the TGI in the test with NCI-H226 lung, in the test with EKVX NSCLC and in the test with A498 renal was greater than 10 µM throughout.
Take `COc1ccc2nc3cc(Cl)ccc3c(Sc3ccc(N)cc3)c2c1`: the TGI in the test with UO-31 renal was found to be 22.7 µM; with SN12C renal it was 24 µM; with COLO 205 colon, 23.3 µM; with OVCAR-8 ovarian it was 23.8 µM; in the test with NCI-H226 lung, 34.3 µM; in the test with EKVX NSCLC, 25.4 µM. For the same compound, the TGI in the test on A498 renal was found to be 76.3 µM.
Regarding `C=CC[P@]1(=O)O[C@H](c2ccccc2)C(C)N1C(C)C` (stereo partly specified), the TGI with UO-31 renal, in the test with HL-60(TB) leukemia, in the test with SN12C renal, in the test with COLO 205 colon, in the test on OVCAR-8 ovarian and in the test with NCI-H226 lung was greater than 100 µM in each case. Besides, the TGI in the test with EKVX NSCLC and in the test on A498 renal was greater than 100 µM each time.
As to `C=CCCC(O)c1cc(C)c(O)c(C)c1` (stereo unspecified), the TGI with UO-31 renal, with HL-60(TB) leukemia, with SN12C renal, with COLO 205 colon, with OVCAR-8 ovarian and with NCI-H226 lung was greater than 100 µM in each case. The TGI with EKVX NSCLC and with A498 renal was greater than 100 µM throughout.
As to `COc1ccccc1/C=C1\C(=O)N(C(=O)Cc2ccccc2)N=C1C`, the TGI with UO-31 renal, with HL-60(TB) leukemia, in the test on SN12C renal, with COLO 205 colon, in the test with OVCAR-8 ovarian and in the test on NCI-H226 lung was greater than 100 µM in each case. This compound gave a TGI in the test on EKVX NSCLC greater than 100 µM.
